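Exposure lasted 48 hours, with cells grown in 96-well plates and compounds tested at five concentrations. GI50 is the concentration that inhibits growth by half.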 The source made the active and inactive calls. Cut-off read from the data, not from the text of the source: active = GI50 up to about 1.1 µM and inactive = higher.

Some test systems named below: NCI-H23; NCI/ADR-RES; SK-MEL-28; K562; HCT-15; OVCAR-8; UACC-257; HOP-92; SK-MEL-2; A549; SNB-75; M14; OVCAR-5; A498; MDA-MB-231; SF-295; SNB-19; 786-0; HCC 2998; MDA-N.
What all share (test): growth of human tumour cells (NCI), 48 h

Regarding `COc1ccc(N2C=Nn3c(nc4sc(C)c(C)c4c3=O)C2)cc1`, the GI50 in the experiment with NCI-H23 was > 100 µM (inactive); with NCI/ADR-RES, > 100 µM (inactive); in the experiment on SK-MEL-28, > 100 µM (inactive); in the experiment with K562, > 100 µM (inactive); in the experiment on HCT-15 it was above 100 µM; with OVCAR-8, > 100 µM (inactive). Also, the GI50 in the experiment on UACC-257, in the experiment with HOP-92, in the experiment with SK-MEL-2, in the experiment on A549, in the experiment on SNB-75 and in the experiment on M14 was > 100 µM (inactive) each time. The GI50 in the experiment on OVCAR-5 is > 100 µM (inactive); in the experiment on A498, 29.4 µM (inactive); with MDA-MB-231, > 100 µM (inactive); in the experiment on SF-295, > 100 µM (inactive); in the experiment with SNB-19 it was > 100 µM (inactive); in the experiment with 786-0, 38.3 µM (inactive). In addition, the GI50 in the experiment on HCC 2998 and with MDA-N was > 100 µM (inactive) each time.

For the compound `C=C1C(=O)OC2/C=C(/C)C3(O)OC(C)(CC(OC(=O)C(C)C)C12)CC3OC(C)=O` (configuration not stated), the GI50 in the experiment with NCI-H23 is 3.34 µM (inactive); with NCI/ADR-RES, 11.9 µM (inactive); with SK-MEL-28 it was 7.48 µM (inactive); in the experiment on K562, 2.96 µM (inactive); in the experiment with HCT-15, 4.45 µM; in the experiment on OVCAR-8, 3.27 µM (inactive). The GI50 with UACC-257 was 16.4 µM (inactive); with HOP-92 it was 13.3 µM (inactive); with SK-MEL-2, 12 µM (inactive); in the experiment with A549, 10.8 µM (inactive); in the experiment on SNB-75, 47.5 µM (inactive); in the experiment with M14 it was 6.92 µM (inactive). Further, the GI50 is 12.9 µM (inactive) with OVCAR-5; 3.96 µM (inactive) in the experiment on A498; 12.5 µM (inactive) in the experiment on MDA-MB-231; 9.75 µM (inactive) in the experiment on SF-295; 15.3 µM (inactive) in the experiment on SNB-19; 5.27 µM (inactive) in the experiment on 786-0. For the same compound, the GI50 in the experiment with HCC 2998 was 4.53 µM (inactive); in the experiment with MDA-N, 2.04 µM (inactive).

Turning to `Cc1noc2nnn(-c3ccc(Cl)cc3)c(=O)c12`, the GI50 is 4.75 µM (inactive) in the experiment with NCI-H23; 4.17 µM (inactive) in the experiment on NCI/ADR-RES; 10.8 µM (inactive) with SK-MEL-28; 1.3 µM (inactive) with K562; 2.31 µM in the experiment on HCT-15; 2.69 µM (inactive) in the experiment on OVCAR-8. For the same compound, the GI50 in the experiment on UACC-257 is 7.5 µM (inactive); with HOP-92, 6.4 µM (inactive); in the experiment with SK-MEL-2, 3.24 µM (inactive); in the experiment with A549 it was 12.1 µM (inactive); with SNB-75 it was 1.1 µM (active); in the experiment on M14 it was 11.8 µM (inactive). Also, the GI50 in the experiment on OVCAR-5 was 7.23 µM (inactive); in the experiment with A498, 13.5 µM (inactive); in the experiment with MDA-MB-231, 8.95 µM (inactive); with SF-295, 12.3 µM (inactive); in the experiment on SNB-19, 13.3 µM (inactive); with 786-0, 2.45 µM (inactive). In addition, the values for the GI50 with HCC 2998 and in the experiment on MDA-N were 2.15 µM (inactive) and 6.01 µM (inactive), respectively.

On to `COc1cc2c(c3c1c(=O)c1ccccc1n3C)C=CC1(CCCC1)O2`, for which the GI50 in the experiment with NCI-H23 is 12.9 µM (inactive); in the experiment with NCI/ADR-RES, 23.7 µM (inactive); with SK-MEL-28 it was 13.9 µM (inactive); in the experiment on K562 it was 7.5 µM (inactive); with HCT-15 it was 14.1 µM; in the experiment with OVCAR-8, 18.4 µM (inactive). Besides, the GI50 is 15.9 µM (inactive) in the experiment with UACC-257; 16.6 µM (inactive) in the experiment with HOP-92; 14 µM (inactive) in the experiment on SK-MEL-2; 19.7 µM (inactive) in the experiment on A549; 11.8 µM (inactive) with SNB-75; 13.3 µM (inactive) in the experiment on M14. In addition, the GI50 in the experiment on OVCAR-5 is 12.9 µM (inactive); in the experiment with A498 it was 18 µM (inactive); in the experiment on MDA-MB-231, 12.4 µM (inactive); with SF-295 it was 3.63 µM (inactive); in the experiment with SNB-19 it was 18.5 µM (inactive); with 786-0 it was 6.56 µM (inactive). For the same compound, the GI50 with HCC 2998 is 21.8 µM (inactive); in the experiment on MDA-N, 15.3 µM (inactive).

With `C=C(CCCCCCCCC)CC(=O)SCCNC(=O)CCNC(=O)C(O)C(C)(C)COP(=O)(O)OP(=O)(O)OCC1OC(n2cnc3c(N)ncnc32)C(O)C1OP(=O)(O)O` (configuration not stated), the GI50 in the experiment with NCI-H23 is > 100 µM (inactive); in the experiment on NCI/ADR-RES, > 100 µM (inactive); in the experiment with SK-MEL-28 it was 10.4 µM (inactive); with K562, > 31.6 µM (inactive); in the experiment on HCT-15 it was 50.1 µM; in the experiment with OVCAR-8, 58.2 µM (inactive). Besides, the GI50 in the experiment with UACC-257 was 48.1 µM (inactive); with HOP-92, 75.5 µM (inactive); in the experiment on SK-MEL-2, 60.8 µM (inactive); in the experiment on A549, > 92.5 µM (inactive); in the experiment on SNB-75 it was 30 µM (inactive); in the experiment with M14 it was 25.5 µM (inactive). Moreover, the GI50 is > 100 µM (inactive) in the experiment with OVCAR-5; > 100 µM (inactive) in the experiment with A498; > 77.8 µM (inactive) in the experiment with MDA-MB-231; 57.4 µM (inactive) in the experiment on SF-295; > 71.6 µM (inactive) in the experiment with SNB-19; 69.5 µM (inactive) in the experiment with 786-0. The values for the GI50 in the experiment on HCC 2998 and with MDA-N were 52.8 µM (inactive) and 32.1 µM (inactive), respectively.

For `O=[N+]([O-])c1cccc(-c2ncnc(-c3cccc([N+](=O)[O-])c3)n2)c1`, the GI50 was 58.5 µM (inactive) in the experiment with NCI-H23; > 100 µM (inactive) in the experiment with NCI/ADR-RES; > 100 µM (inactive) with SK-MEL-28; 48.6 µM (inactive) with K562; > 100 µM (inactive) with OVCAR-8; 38.7 µM (inactive) in the experiment on UACC-257. For the same compound, the GI50 is 19.5 µM (inactive) in the experiment on HOP-92; 51.5 µM (inactive) in the experiment with SK-MEL-2; > 100 µM (inactive) with A549; 26.7 µM (inactive) in the experiment with SNB-75; > 100 µM (inactive) in the experiment with M14; > 100 µM (inactive) in the experiment on OVCAR-5. Further, the GI50 is 23.9 µM (inactive) in the experiment with A498; 34.9 µM (inactive) in the experiment on MDA-MB-231; 41.6 µM (inactive) in the experiment with SF-295; 27.4 µM (inactive) with 786-0; > 100 µM (inactive) in the experiment with HCC 2998; > 100 µM (inactive) with MDA-N.

Regarding `Cc1ccc(-c2cc(-c3cc(-c4ccc(C)cc4C)[nH]n3)[nH]n2)c(C)c1`, the GI50 was 19.8 µM (inactive) in the experiment on NCI-H23; 18.9 µM (inactive) in the experiment on NCI/ADR-RES; 13.7 µM (inactive) in the experiment on SK-MEL-28; 15.5 µM (inactive) in the experiment on K562; 15.4 µM in the experiment with HCT-15; 15 µM (inactive) in the experiment on OVCAR-8. Moreover, the GI50 is 12.4 µM (inactive) with UACC-257; 18.9 µM (inactive) in the experiment on HOP-92; 18.2 µM (inactive) with SK-MEL-2; 13.9 µM (inactive) in the experiment with A549; 18.3 µM (inactive) in the experiment with SNB-75; 15.8 µM (inactive) in the experiment with M14. The GI50 is 23.7 µM (inactive) in the experiment with OVCAR-5; 16.6 µM (inactive) in the experiment with A498; 16.2 µM (inactive) in the experiment on MDA-MB-231; 13.1 µM (inactive) with SF-295; 18.5 µM (inactive) in the experiment on SNB-19; 13 µM (inactive) in the experiment on 786-0. Moreover, the GI50 with HCC 2998 is 13.2 µM (inactive); in the experiment with MDA-N, 14.9 µM (inactive).

For `O=C(CCN1CCOCC1)c1ccc(Oc2ccc(F)cc2)cc1`, the GI50 with NCI-H23 is 26.7 µM (inactive); in the experiment on NCI/ADR-RES, 26.9 µM (inactive); in the experiment on SK-MEL-28 it was 28 µM (inactive); with K562 it was 23.6 µM (inactive); with HCT-15, 19 µM; with OVCAR-8, 19.4 µM (inactive). The GI50 is 17.7 µM (inactive) in the experiment on UACC-257; 28.1 µM (inactive) in the experiment with HOP-92; 23.6 µM (inactive) in the experiment with SK-MEL-2; > 100 µM (inactive) in the experiment on A549; 19.6 µM (inactive) in the experiment with SNB-75; 18.4 µM (inactive) in the experiment with M14. For the same compound, the GI50 in the experiment on OVCAR-5 is 24.2 µM (inactive); in the experiment on A498 it was > 100 µM (inactive); in the experiment with MDA-MB-231 it was 19.6 µM (inactive); in the experiment on SF-295, > 100 µM (inactive); in the experiment on SNB-19 it was > 100 µM (inactive); in the experiment with 786-0 it was 17.1 µM (inactive). The GI50 is 37.2 µM (inactive) in the experiment with HCC 2998 and 23.8 µM (inactive) in the experiment on MDA-N.

Turning to `Cc1c(-c2ccccc2)c(C#N)c2nnn(-c3ccccc3)c(=O)n12`, the GI50 in the experiment with NCI-H23 was > 100 µM (inactive); with NCI/ADR-RES, > 100 µM (inactive); in the experiment with SK-MEL-28, > 100 µM (inactive); with K562, 40.6 µM (inactive); with HCT-15, 36 µM; with OVCAR-8, > 100 µM (inactive). Further, the GI50 is > 100 µM (inactive) in the experiment with UACC-257; > 100 µM (inactive) in the experiment on HOP-92; > 100 µM (inactive) in the experiment with SK-MEL-2; 97.9 µM (inactive) in the experiment on A549; > 100 µM (inactive) with SNB-75; 67.1 µM (inactive) with M14. Further, the GI50 with OVCAR-5 is > 100 µM (inactive); in the experiment with A498 it was 65.8 µM (inactive); in the experiment on MDA-MB-231 it was > 100 µM (inactive); in the experiment on SF-295, 43.7 µM (inactive); in the experiment on SNB-19, > 100 µM (inactive); in the experiment on 786-0 it was 76.4 µM (inactive). The GI50 is 99.8 µM (inactive) in the experiment with HCC 2998 and > 100 µM (inactive) in the experiment with MDA-N.

Regarding `CC(C)C1OCC(CO)CO1` (configuration not stated), the GI50 with NCI-H23 was > 100 µM (inactive); with NCI/ADR-RES, > 100 µM (inactive); in the experiment on SK-MEL-28 it was > 100 µM (inactive); in the experiment on HCT-15 it was above 100 µM; in the experiment with OVCAR-8 it was > 100 µM (inactive); with UACC-257, > 100 µM (inactive). Moreover, the GI50 in the experiment on HOP-92, in the experiment on SK-MEL-2, with A549, with SNB-75, with M14 and with OVCAR-5 was > 100 µM (inactive) each time. For the same compound, the GI50 with A498, in the experiment on MDA-MB-231, in the experiment with SF-295, in the experiment on SNB-19, in the experiment on 786-0 and in the experiment with HCC 2998 was > 100 µM (inactive) in each case. Moreover, the GI50 with MDA-N is > 100 µM (inactive).

The values are drawn from ChEMBL document CHEMBL1201862, “PubChem BioAssay data set” (2004).
